Results from PMC10033419, “Blocking NS3–NS4B interaction inhibits dengue virus in non-human primates” (Nature, 2023).
Where “and” joins values, the source holds several entries; their conditions need not be identical. Identical values can stand only once. Like-named read-outs stand apart in the source and are kept apart here.

Key:
[1] = both, Indian-origin, rhesus monkey, in vivo, po
[2] = ATPLite cell viability assay; format: cell-based; conditions: human, Huh-7 cells; Huh-7, n=1
Experimental: In parallel, the toxicity was measured using an ATPLite cell viability luminescence assay (PerkinElmer). The assays were performed in three different cell types (Vero, Huh-7 and THP-1/DC-SIGN) as described in ref. [3] to exclude cell-specific activity of the compound.

[3] = format: in vivo, rhesus macaques
Description: WRAIR is fully accredited by AAALAC International.

HBV replicon = test: microbe, parasite or virus in culture; format: cell-based; conditions: Hepatitis B virus
DENV-2/16681/eGFP [4] = test: microbe, parasite or virus in culture; format: cell-based; conditions: Dengue virus, DENV2, Vero
DENV-2/16681/eGFP [5] = test: microbe, parasite or virus in culture; format: cell-based; conditions: Dengue virus
DENV-2/16681 [6] = test: NHP DENV-2 study, anti-DENV IgG ELISA; design: species or system rhesus macaques (M. mulatta); conditions: rhesus monkey, in vivo
in vivo = conditions: rhesus monkey, iv, 1 mg/kg
Experimental: After single intravenous administration, the monkey blood was collected at the BPRC just before dosing, and at 0.05, 0.15, 0.5, 4, 6, 8, 24, 48 and 264 h after dosing. After oral administration, the monkey blood was collected at the BPRC on the first and last day of dosing just before dosing and at 1, 2, 4, 6, 8 and 24 h after dosing that day. Moreover, blood samples were taken on days 3, 6 and 7 after infection just before dosing. For the study at WRAIR, the monkey blood was collected just before dosing and at 1, 4, 8 and 24 h after the first day of dosing and before dosing and at 2, 5, 8, 24 and 96 h after the last day of dosing. Furthermore, blood samples were taken on days 0, 2, 5 and 8 after infection just before dosing. […] A volume of 1 ml blood was collected into a blood collection tube coated with EDTA as anti-coagulant. Within 1 h after collection, the blood samples were centrifuged in a precooled centrifuge for 10 min at 1,500g (4 °C). Within 2 h after blood collection, the plasma samples were stored at −80 °C until shipment. Individual plasma concentration–time profiles were processed for a non-compartmental pharmacokinetics analysis using Phoenix WinNonlin v.6.3. (Certara).

DENV-2/16681 [7] = test: NHP DENV-2 study, anti-DENV IgM ELISA; design: species or system rhesus macaques (M. mulatta); conditions: rhesus monkey, in vivo
VACV Western reserve 56 = test: microbe, parasite or virus in culture; format: cell-based; conditions: Orthopoxvirus vaccinia, Vero C1008; VeroE6
[8] = system: unrelated DNA and RNA viruses; test: Panel of unrelated DNA and RNA viruses; format: cell-based
DENV-2/16681 [9] = test: NHP DENV-2 study, plasma viral RNA RT-qPCR; design: species or system rhesus macaques (M. mulatta); conditions: rhesus monkey, in vivo
panel of 20 DENV strains = test: DENV genotype panel (20 strains) RT-qPCR, Vero E6; format: cell-based, DENV-1–4; conditions: Dengue virus, DENV4 / genotype 3, Vero C1008, read-out: mean EC50, range
Experimental: A total of 20 DENV strains, representing the available genotypes within the four DENV serotypes, were used in the in vitro genotype panel, from which 19 viruses were described previously in ref. [3] and one additional virus, DENV-1/45AZ5 (ref. [54]), was added.
(§1) A potential toxic effect on host cells was tested in parallel, while omitting virus infection, using the MTS/PMS method (Promega) for Vero cells, or by high-content imaging for C6/36 cells, as described previously. […] RT–qPCR data were analysed using the QuantStudio 12K Flex software (v.1.2.3) or SDS v.1.2 Applied Biosystems software. Inhibition values for antiviral molecules were plotted using KaleidaGraph plotting software (v.4.03, Synergy Software).

ZIKV H/PF/2013 = test: microbe, parasite or virus in culture; format: cell-based; conditions: Zika virus, Vero C1008
Plasma protein binding = format: in vitro ADME; conditions: mouse, mice
[10] = design: method as in earlier work; conditions: healthy volunteers ref 4; cited from earlier work
INF-A PR8/1934 = test: microbe, parasite or virus in culture; format: cell-based; conditions: Influenza A virus, PR8, MDCK
Vero cells = test: MTS/PMS toxicity assay; format: cell-based, African green monkey; conditions: EXP1-EXP3, read-out: CC50, single experiments
Experimental: as §1

MTS/PMS toxicity assay = format: cell-based, African green monkey; conditions: African green monkey, Vero cells
Experimental: as §1

With `COc1cc(N[C@H](C(=O)c2c[nH]c3ccc(OC(F)(F)F)cc23)c2ccc(Cl)cc2OC)cc(S(C)(=O)=O)c1` [JNJ-1802] the Tmax ([1]; 0.01 mg/kg) was 24 h, the Cmax ([1]; 0.18 mg/kg) was 25.3 ± 6.7 ng/mL and the Tmax ([1]; 3 mg/kg) was “up to 24 h”. For the same compound, the CC50 [2] was 12700 nM, the “Weight change (%)” value ([3]; Day 1, individual animals) was -0.3571% and -0.3226% and the “Weight change (%)” value ([3]; Day 3, individual animals) was -0.3571%. The “Weight change (%)” value ([3]; Day 5, individual animals) was 0.3226%, the “Weight change (%)” value ([3]; Day 8, individual animals) was 1.143% and the “Weight change (%)” value ([3]; Day 9, individual animals) was -1.29%. The “Weight change (%)” value ([3]; Day 10, individual animals) was 0.3226%, the “Weight change (%)” value ([3]; Day 29, individual animals) was 1.711% and the “Weight change (%)” value ([3]; Day -2, individual animals) was -0.3571% and 0.3226%. The EC50 (HBV replicon; HepG2.117) was 10000 nM, the EC50 (HBV replicon; HepG2.117, read-out: EC50, Mean) was 9960 nM and the EC90 (HBV replicon; HepG2.117, read-out: EC90, Mean) was 12500 nM. The EC50 (DENV-2/16681/eGFP [4]; Vero with 50% HS, read-out: EC50, protein-binding-adjusted) was 1.4 nM, the EC90 (DENV-2/16681/eGFP [4]; Vero with 50% HS, read-out: EC90, protein-binding-adjusted) was 4.8 ± 1.4 nM and the EC50 (DENV-2/16681/eGFP [4]; Vero, mean ± s.d., read-out: EC50) was 0.059 ± 0.03 nM. The EC90 (DENV-2/16681/eGFP [4]; Vero, read-out: EC90) was 0.161 ± 0.083 nM, the EC50 (DENV-2/16681/eGFP [4]; two DENV-2 laboratory strains in Vero, Huh-7, C6/36, THP-1/DC-SIGN, read-out: mean EC50, range) was 0.059 to 1.24 nM and the EC50 (DENV-2/16681/eGFP [5]; DENV2, THP-1, THP-1/DC-SIGN, read-out: EC50) was 0.173 ± 0.043 nM. It also gave an EC90 (DENV-2/16681/eGFP [5]; DENV2, THP-1, THP-1/DC-SIGN, read-out: EC90) of 0.283 ± 0.056 nM, an EC50 (DENV-2/16681/eGFP [5]; DENV2, THP-1, read-out: EC50, individual data) of 0.2 nM and an EC90 (DENV-2/16681/eGFP [5]; DENV2, THP-1, read-out: EC90, individual data) of 0.25 nM. For the same compound, the IgG seroconversion (DENV-2/16681 [6]) was “observed at later timepoints”, the “animals with detectable anti-DENV IgG” value (DENV-2/16681 [6]) was “none of the animals” and the AUC(0-inf) (in vivo; female, in vivo) was 11800 ng·h/mL. It also gave an AUC(0-t) (in vivo; female, plasma) of 6730 ng·h/mL, a clearance (in vivo; female, plasma) of 1.67 ± 0.74 mL/min/kg and a half-life (in vivo; female, plasma) of 50 ± 12 h. For the same compound, the Vdssp (in vivo; in vivo) was 3.93 ± 1.18 L/kg, the “IgG and IgM seroconversion” value (DENV-2/16681 [7]) was “occurred in all of the animals” and the IgM seroconversion (DENV-2/16681 [7]) was “occurred at later timepoints”. For the same compound, the “animals with detectable anti-DENV IgM” value (DENV-2/16681 [7]) was “one out of three”, the EC50 (VACV Western reserve 56) was 8900 nM and the “activity against unrelated DNA and RNA viruses” value [8] was “inactive”. For the same compound, the “DENV RNA in plasma” value (DENV-2/16681 [9]) was “undetectable DENV RNA levels throughout the study period”, the “Viral load Assay 1 FLAG” value (DENV-2/16681 [9]) was “BLOQ (key: BLOQ = Below limit of detection)” and the “Viral load Assay 2 FLAG” value (DENV-2/16681 [9]) was “BLOQ (key: BLOQ = Below limit of detection)”. For the same compound, the “Viral load Assay 2 FLAG (2nd column)” value (DENV-2/16681 [9]) was “BLOQ (key: BLOQ = Below limit of detection)”, the “day first DENV-RNA positive (≥LLOQ)” value (DENV-2/16681 [9]) was 5 and the “day first DENV-RNA positive (≥LLOQ), per animal” value (DENV-2/16681 [9]) was 21 and 6 and 10. For the same compound, the peak viraemia (DENV-2/16681 [9]) was “comparable to the vehicle controls”, the EC50 (panel of 20 DENV strains) was 0.04 to 1.8 nM and the EC50 (ZIKV H/PF/2013) was 1100 nM. The fraction unbound (Plasma protein binding) was < 0.001, the “safety and tolerability in humans” value [10] was “safe and well tolerated” and the EC50 (INF-A PR8/1934) was > 2600 nM. For the same compound, the EC50 (INF-A PR8/1934; read-out: EC50, Mean) was > 25000 nM, the EC90 (INF-A PR8/1934; read-out: EC90, Mean) was > 25000 nM and the CC50 (Vero cells) was > 2000 nM. For the same compound, the CC50 (MTS/PMS toxicity assay; EXP1-EXP3, read-out: CC50, single experiments) was 2770 nM, the CC50 (MTS/PMS toxicity assay; Vero, read-out: CC50) was > 2260 nM and the CC50 (MTS/PMS toxicity assay; mean, read-out: CC50 MEAN) was > 2300 nM. The CC50 (MTS/PMS toxicity assay; median, read-out: CC50 MEDIAN) was > 2000 nM.
